{"source": "patent US11298422B2", "about": "“Treating tumors with TTFields and an aurora kinase inhibitor” (Novocure Limited, priority 2018, dated 2022)", "key": {"U87-MG^shp53 [1]": {"test_system": "U87-MG^shp53", "assay": "Cytotoxicity assay (cell count at end of treatment), U87-MG^shp53", "format": "cell-based, human", "conditions": "for cytotoxic effect, Observed TTFields + AZD1152 / cytotoxic effect, AZD1152: 72 h; for cytotoxic effect, Observed TTFields + AZD1152: percentage of control; for cytotoxic effect, Expected: expected value for the combination; for cytotoxic effect, AZD1152: number of cells as percentage of control", "protocol": "(§1) The effects of the combined treatment of TTFields and the Aurora B kinase inhibitor AZD1152 was tested in 3 different glioma cell lines: U87-MG, U87-MG^shp53 and U-251. TTFields ([…], 200 kHz) were applied for 72 hours using the Inovitro system. AZD1152 was added to the media in concentrations of up to 100 nmol/L. Cell counts, cell cycle, and clonogenic potential were determined at the end of treatment. Formation of multinuclear cells was determined using microscopic images of cells stained with crystal violet.\n(§2) The effects of the combined treatment of TTFields and AZD1152 was tested using the following human glioma cell lines: U87-MG (ATCC), U-251 (ECACC) and U87-mG^shp53 (provided by Dr. Achim Temme). All cells were grown in a humidified incubator supplied with 5% CO2. Cells were maintained in EMEM, supplemented with 10% FBS, 2 mmol/L glutamine, Pen-Strep solution (100 units/ml Penicillin and 0.1 mg/ml Streptomycin), 1 mmol/L sodium pyruvate and 1% NEAA. U87-MG^shp53 cells were maintained under selection with […] geneticin. AZD1152 was obtained from Sigma, Israel.\n(§3) TTFields (1.6 V/cm RMS, 200 kHz) were applied for 72 hours using the Inovitro system. At the end of treatment, inhibition of tumor cell growth was analyzed quantitatively based on cell count. Clonogenic survival of U87-MG, U87-MG^shp53 and U-251 was tested by plating triplicates of 300 cells/dish in 6 wells dishes. After 2-3 weeks, cells were stained with crystal violet and the number of clones was quantified. Overall effect was calculated by multiplying the percentage of surviving cells at the end of treatment with the percentage of colonies formed vs. control."}, "U87-MG^shp53 [2]": {"test_system": "U87-MG^shp53", "assay": "Overall effect (surviving cells x colonies formed vs. control), U87-MG^shp53", "format": "cell-based, human", "conditions": "for dosage required to achieve an overall effect of 38%: U87-MG^shp53 (FIG. 1D); for overall effect, Observed TTFields + AZD1152 / overall effect, AZD1152: 72 h; for overall effect, Expected: expected value for the combination; for overall effect, AZD1152: surviving cells x colonies vs. control", "protocol": "as §1, §2, §3"}, "[3]": {"conditions": "patients with advanced solid tumors, cited from earlier work"}, "[4]": {"conditions": "U87-MG^shp53, AZD1152 25 nM + TTFields 200 kHz 1.6 V/cm RMS"}, "[5]": {"conditions": "U87-MG^shp53, AZD1152 25 nM + TTFields"}, "[6]": {"conditions": "U87-MG^shp53, AZD1152 25 nM alone"}, "[7]": {"conditions": "U87-MG^shp53, AZD1152 50 nM + TTFields 200 kHz 1.6 V/cm RMS"}, "[8]": {"conditions": "U87-MG^shp53, AZD1152 50 nM + TTFields"}, "[9]": {"conditions": "U87-MG^shp53, AZD1152 50 nM alone"}, "[10]": {"conditions": "U87-MG^shp53, AZD1152 100 nM + TTFields 200 kHz 1.6 V/cm RMS"}, "[11]": {"conditions": "U87-MG^shp53, AZD1152 100 nM + TTFields"}, "[12]": {"conditions": "U87-MG^shp53, AZD1152 100 nM alone"}}, "note": "Read-outs that look alike come from different tables or passages of the source.", "data": [{"smiles": "CCN(CCCOc1ccc2c(Nc3cc(CC(=O)Nc4cccc(F)c4)n[nH]3)ncnc2c1)CCOP(=O)(O)O", "note": "[AZD1152, Barasertib]", "values": [{"measurement": "IC50", "setting": "U87-MG^shp53 [1]; Homo sapiens, U87-MG^shp53, AZD1152 alone, 72 hours", "result": "~50", "unit": "nM"}, {"measurement": "cytotoxic effect, Observed TTFields + AZD1152", "setting": "U87-MG^shp53 [1]; [4]", "result": 22.5, "unit": "%"}, {"measurement": "cytotoxic effect, Expected", "setting": "U87-MG^shp53 [1]; [5]", "result": 42.2, "unit": "%"}, {"measurement": "cytotoxic effect, AZD1152", "setting": "U87-MG^shp53 [1]; [6]", "result": 71, "unit": "%"}, {"measurement": "cytotoxic effect, Observed TTFields + AZD1152", "setting": "U87-MG^shp53 [1]; [7]", "result": 10.5, "unit": "%"}, {"measurement": "cytotoxic effect, Expected", "setting": "U87-MG^shp53 [1]; [8]", "result": 27.7, "unit": "%"}, {"measurement": "cytotoxic effect, AZD1152", "setting": "U87-MG^shp53 [1]; [9]", "result": 46.5, "unit": "%"}, {"measurement": "cytotoxic effect, Observed TTFields + AZD1152", "setting": "U87-MG^shp53 [1]; [10]", "result": 4.5, "unit": "%"}, {"measurement": "cytotoxic effect, Expected", "setting": "U87-MG^shp53 [1]; [11]", "result": 8.9, "unit": "%"}, {"measurement": "cytotoxic effect, AZD1152", "setting": "U87-MG^shp53 [1]; [12]", "result": 15, "unit": "%"}, {"measurement": "cytotoxic effect of combined treatment of TTFields and AZD1152", "setting": "U87-MG^shp53 [1]; U87-MG^shp53, 2-way ANOVA, p<0.001", "result": "significant enhancement of the cytotoxic effect"}, {"measurement": "dosage required to achieve an overall effect of 38%", "setting": "U87-MG^shp53 [2]; combined with TTFields", "result": 25, "unit": "nM"}, {"measurement": "dosage required to achieve an overall effect of 38%", "setting": "U87-MG^shp53 [2]; in the absence of TTFields", "result": 70, "unit": "nM"}, {"measurement": "overall effect, Observed TTFields + AZD1152", "setting": "U87-MG^shp53 [2]; [4]", "result": 39.0, "unit": "%"}, {"measurement": "overall effect, Expected", "setting": "U87-MG^shp53 [2]; [5]", "result": 51.0, "unit": "%"}, {"measurement": "overall effect, AZD1152", "setting": "U87-MG^shp53 [2]; [6]", "result": 79, "unit": "%"}, {"measurement": "overall effect, Observed TTFields + AZD1152", "setting": "U87-MG^shp53 [2]; [7]", "result": 13.0, "unit": "%"}, {"measurement": "overall effect, Expected", "setting": "U87-MG^shp53 [2]; [8]", "result": 33.9, "unit": "%"}, {"measurement": "overall effect, AZD1152", "setting": "U87-MG^shp53 [2]; [9]", "result": 52.5, "unit": "%"}, {"measurement": "overall effect, Observed TTFields + AZD1152", "setting": "U87-MG^shp53 [2]; [10]", "result": 2.5, "unit": "%"}, {"measurement": "overall effect, Expected", "setting": "U87-MG^shp53 [2]; [11]", "result": 7.1, "unit": "%"}, {"measurement": "overall effect, AZD1152", "setting": "U87-MG^shp53 [2]; [12]", "result": 11, "unit": "%"}, {"measurement": "reduction of dosage required for a given level of overall effect when combined with TTFields", "setting": "U87-MG^shp53 [2]; with respect to the dosage giving the same overall effect in the absence of an alternating electric field, 'can often be'", "result": "at least 50%"}, {"measurement": "maximum tolerated AZD1152 dose", "setting": "[3]; administered as two 2-h infusions (110 mg/day, days 1, 2, 15 and 16)", "result": 220, "unit": "mg"}, {"measurement": "maximum tolerated AZD1152 dose", "setting": "[3]; as a 48-h continuous infusion", "result": 150, "unit": "mg"}]}]}
